In brackets after ≈: the same amount, converted by molar mass. Several values for one entry are separate records, joined by “and”; a condition that tells them apart may be missing. Equal values may be shown once.
Legend:
Assay in all cases: ≥ marks a high value that may be exact or a test limit, other limits are often not marked, values filed in µg/mL are converted to µM
[1] = system: Pseudomonas aeruginosa PAK
Staphylococcus aureus = system: Staphylococcus aureus
[2] = system: Streptococcus gordonii Challis DL1
[3] = system: Streptococcus mitis ATCC 903
[4] = system: Streptococcus mutans UA159
[5] = system: Streptococcus sanguinis NY101
[6] = system: Candida albicans CGMCC 2.2086
Candida albicans = system: Candida albicans
[7] = system: Candida parapsilosis CGMCC 2.3989
[8] = system: Candida tropicalis CGMCC 2.1975
Escherichia coli 078 = system: Escherichia coli 078
Escherichia coli K88 = system: Escherichia coli K88
Escherichia coli K99 = system: Escherichia coli K99
Escherichia coli UB1005 = system: Escherichia coli UB1005
[9] = system: Pseudomonas aeruginosa ATCC 27853
[10] = system: Salmonella enterica subsp. enterica serovar Pullorum ATCC 7913
[11] = system: Salmonella enterica subsp. enterica serovar Typhimurium ATCC 14028
[12] = system: Salmonella enterica subsp. enterica serovar Typhimurium C77-31
[13] = system: Staphylococcus aureus ATCC 25923
[14] = system: Staphylococcus aureus ATCC 43300
[15] = system: Staphylococcus epidermidis ATCC 12228
[16] = system: Escherichia coli ATCC 25922
[17] = system: Staphylococcus aureus ATCC 29213
[18] = system: Legionella pneumophila Lens

| SMILES | MIC [1] | MIC (Staphylococcus aureus) | MIC [2] | MIC [3] | MIC [4] | MIC [5] | MIC [6] | MIC (Candida albicans) | MIC [7] | MIC [8] | also measured |
| --- | --- | --- | --- | --- | --- | --- | --- | --- | --- | --- | --- |
| CC[C@H](C)[C@H](NC(=O)[C@H](C)NC(=O)[C@H](CCCCN)NC(=O)[C@@H](NC(=O)[C@@H](NC(=O)[C@H](CCC(=O)O)NC(=O)[C@@H](NC(=O)[C@@H](NC(=O)[C@H](CCCCN)NC(=O)CNC(=O)[C@H](CC(C)C)NC(=O)[C@@H](NC(=O)[C@H](CC(=O)O)NC(=O)[C@H](CCC(N)=O)NC(=O)[C@H](Cc1ccccc1)NC(=O)[C@@H](NC(=O)[C@H](CCC(N)=O)NC(=O)[C@@H](N)CCSC)[C@@H](C)O)[C@@H](C)CC)C(C)C)[C@@H](C)CC)C(C)C)[C@@H](C)CC)C(=O)N[C@H](C(=O)N[C@@H](CC(=O)O)C(=O)N[C@@H](C)C(=O)N[C@@H](CCCCN)C(=O)O)C(C)C [MQTFQDILGKVIEVIKAIVDAK] |  |  |  |  |  |  |  |  |  |  | MIC [18]: 5.08 µM (≈ 12.5 µg/mL) |
| CC[C@H](C)[C@H](NC(=O)CNC(=O)[C@H](CCCCN)NC(=O)[C@@H](NC(=O)[C@H](CC(C)C)NC(=O)[C@H](CC(C)C)NC(=O)[C@@H](NC(=O)[C@H](CCCCN)NC(=O)CNC(=O)[C@@H](NC(=O)[C@@H](N)CCCCN)[C@@H](C)CC)C(C)C)C(C)C)C(=O)N[C@@H](CCCCN)C(=O)N[C@@H](CCCCN)C(=O)N[C@H](C(=O)NCC(=O)N[C@@H](CCCCN)C(=O)N[C@H](C(=O)N[C@@H](CC(C)C)C(N)=O)C(C)C)[C@@H](C)CC [KIGKVLLVKGIKKIGKVL] |  |  |  |  |  |  | ≥ 32 µM | > 64 µM and 32 µM | ≥ 32 µM | 16 µM (≈ 30.9 µg/mL) |  |
| CC[C@H](C)[C@H](NC(=O)[C@H](CC(C)C)NC(=O)[C@H](CCCCN)NC(=O)[C@H](CCCCN)NC(=O)[C@@H](NC(=O)[C@@H](NC(=O)[C@H](CCC(=O)O)NC(=O)[C@@H](NC(=O)[C@@H](NC(=O)[C@H](CCCCN)NC(=O)[C@H](C)NC(=O)[C@@H](NC(=O)[C@@H](NC(=O)CNC(=O)[C@H](C)NC(=O)[C@@H](N)CCSC)C(C)C)[C@@H](C)CC)[C@@H](C)CC)C(C)C)[C@@H](C)CC)C(C)C)C(=O)N[C@@H](CC(=O)O)C(=O)N[C@@H](CCC(N)=O)C(=O)N[C@@H](Cc1ccccc1)C(=O)N[C@H](C(=O)N[C@@H](CCC(N)=O)C(=O)N[C@@H](CCCCN)C(=O)O)[C@@H](C)O [MAGVIAKIVEIVKKLIDQFTQK] |  |  |  |  |  |  |  |  |  |  | MIC [18]: 0.94 µM (≈ 2.32 µg/mL) |
| CC[C@H](C)[C@H](NC(=O)[C@H](Cc1ccccc1)NC(=O)[C@H](Cc1cnc[nH]1)NC(=O)[C@H](CCCCN)NC(=O)[C@@H](NC(=O)[C@H](Cc1ccccc1)NC(=O)[C@@H](NC(=O)[C@H](C)NC(=O)[C@H](CO)NC(=O)[C@H](Cc1cnc[nH]1)NC(=O)[C@H](CC(C)C)NC(=O)[C@H](CC(C)C)NC(=O)[C@H](Cc1cnc[nH]1)NC(=O)[C@H](Cc1cnc[nH]1)NC(=O)[C@H](CC(C)C)NC(=O)[C@H](CCCCN)NC(=O)[C@H](CCCCN)NC(=O)[C@H](CC(C)C)NC(=O)[C@H](CC(C)C)NC(=O)[C@H](CCCN=C(N)N)NC(=O)[C@H](CCCN=C(N)N)NC(=O)[C@H](Cc1c[nH]c2ccccc12)NC(=O)[C@@H](N)CCCN=C(N)N)[C@@H](C)O)[C@@H](C)CC)C(=O)N[C@@H](Cc1cnc[nH]1)C(=O)N[C@@H](CCCN=C(N)N)C(=O)N[C@@H](Cc1ccccc1)C(N)=O [RWRRLLKKLHHLLHSATFIKHFIHRF] | 9.43 µM (≈ 32 µg/mL) | 9.43 µM (≈ 32 µg/mL) | 4.72 µM (≈ 16 µg/mL) | 4.72 µM (≈ 16 µg/mL) | 2.36 µM (≈ 8 µg/mL) | 4.72 µM (≈ 16 µg/mL) |  |  |  |  |  |
| CC(C)C[C@H](NC(=O)[C@H](CC(C)C)NC(=O)[C@H](CCCCN)NC(=O)[C@H](CC(C)C)NC(=O)[C@H](CC(C)C)NC(=O)[C@H](CCC(N)=O)NC(=O)[C@H](CCCCN)NC(=O)[C@H](CC(C)C)NC(=O)[C@H](CC(C)C)NC(=O)[C@H](CCC(N)=O)NC(=O)[C@@H](N)CC(C)C)C(=O)N[C@@H](CCCCN)C(=O)N[C@@H](CCC(N)=O)C(=O)N[C@@H](Cc1ccccc1)C(N)=O [LQLLKQLLKLLKQF] | 4.63 µM (≈ 8 µg/mL) | 9.27 µM (≈ 16 µg/mL) | 4.63 µM (≈ 8 µg/mL) | 9.27 µM (≈ 16 µg/mL) | 4.63 µM (≈ 8 µg/mL) | 4.63 µM (≈ 8 µg/mL) |  |  |  |  |  |

Now from value to compound, other results behind:

| MIC [1] | MIC (Staphylococcus aureus) | MIC [2] | MIC [3] | MIC [4] | MIC [5] | MIC [6] | MIC (Candida albicans) | MIC [7] | MIC [8] | SMILES | also measured |
| --- | --- | --- | --- | --- | --- | --- | --- | --- | --- | --- | --- |
| 9.6 µM (≈ 32 µg/mL) | 9.6 µM (≈ 32 µg/mL) | 9.6 µM (≈ 32 µg/mL) | 18.7 µM (≈ 62.5 µg/mL) | 4.8 µM (≈ 16 µg/mL) | 4.8 µM (≈ 16 µg/mL) |  |  |  |  | CC[C@H](C)[C@H](NC(=O)[C@H](Cc1ccccc1)NC(=O)[C@H](Cc1cnc[nH]1)NC(=O)[C@H](CCCCN)NC(=O)[C@@H](NC(=O)[C@@H](N)Cc1ccccc1)[C@@H](C)CC)C(=O)N[C@@H](Cc1cnc[nH]1)C(=O)N[C@@H](CCCN=C(N)N)C(=O)N[C@@H](Cc1ccccc1)C(=O)N[C@@H](CO)C(=O)NCC(=O)NCC(=O)N[C@@H](CCCN=C(N)N)C(=O)N[C@@H](Cc1c[nH]c2ccccc12)C(=O)N[C@@H](CCCN=C(N)N)C(=O)N[C@@H](CCCN=C(N)N)C(=O)N[C@@H](CC(C)C)C(=O)N[C@@H](CC(C)C)C(=O)N[C@@H](CCCCN)C(=O)N[C@@H](CCCCN)C(=O)N[C@@H](CC(C)C)C(=O)N[C@@H](Cc1cnc[nH]1)C(=O)N[C@@H](Cc1cnc[nH]1)C(=O)N[C@@H](CC(C)C)C(=O)N[C@@H](CC(C)C)C(=O)N[C@@H](Cc1cnc[nH]1)C(N)=O [FIKHFIHRFSGGRWRRLLKKLHHLLH] |  |
|  |  |  |  |  |  | ≥ 32 µM | 32 µM (≈ 66.5 µg/mL) | ≥ 32 µM | 8 µM (≈ 16.6 µg/mL) | CC[C@H](C)[C@H](NC(=O)CNC(=O)[C@H](CCCCN)NC(=O)[C@H](Cc1ccccc1)NC(=O)[C@H](CC(C)C)NC(=O)[C@H](CC(C)C)NC(=O)[C@H](Cc1ccccc1)NC(=O)[C@H](CCCCN)NC(=O)CNC(=O)[C@@H](NC(=O)[C@@H](N)CCCCN)[C@@H](C)CC)C(=O)N[C@@H](CCCCN)C(=O)N[C@@H](CCCCN)C(=O)N[C@H](C(=O)NCC(=O)N[C@@H](CCCCN)C(=O)N[C@@H](Cc1ccccc1)C(=O)N[C@@H](CC(C)C)C(N)=O)[C@@H](C)CC [KIGKFLLFKGIKKIGKFL] |  |
|  |  |  |  |  |  | 8 µM (≈ 18 µg/mL) | 8 µM and 5.66 µM | 16 µM (≈ 35.9 µg/mL) | 8 µM (≈ 18 µg/mL) | CC[C@H](C)[C@H](NC(=O)CNC(=O)[C@H](CCCN=C(N)N)NC(=O)[C@H](Cc1ccccc1)NC(=O)[C@H](CC(C)C)NC(=O)[C@H](CC(C)C)NC(=O)[C@H](Cc1ccccc1)NC(=O)[C@H](CCCN=C(N)N)NC(=O)CNC(=O)[C@@H](NC(=O)[C@@H](N)CCCN=C(N)N)[C@@H](C)CC)C(=O)N[C@@H](CCCN=C(N)N)C(=O)N[C@@H](CCCN=C(N)N)C(=O)N[C@H](C(=O)NCC(=O)N[C@@H](CCCN=C(N)N)C(=O)N[C@@H](Cc1ccccc1)C(=O)N[C@@H](CC(C)C)C(N)=O)[C@@H](C)CC [RIGRFLLFRGIRRIGRFL] |  |
|  |  |  |  |  |  |  |  | 4 µM (≈ 5.83 µg/mL) | 4 µM (≈ 5.83 µg/mL) | CC[C@H](C)[C@H](NC(=O)[C@H](CCCN=C(N)N)NC(=O)[C@H](C)NC(=O)[C@H](C)N)C(=O)N[C@H](C(=O)N[C@@H](CC(C)C)C(=O)N[C@@H](CCCN=C(N)N)C(=O)N[C@@H](Cc1c[nH]c2ccccc12)C(=O)N[C@@H](Cc1ccccc1)C(=O)N[C@@H](CCCN=C(N)N)C(=O)N[C@@H](CCCN=C(N)N)C(N)=O)[C@@H](C)CC [AARIILRWFRR] | MIC (Escherichia coli 078): 1.37 µM (≈ 2 µg/mL); MIC (Escherichia coli K88): 2 µM (≈ 2.91 µg/mL); MIC (Escherichia coli K99): 2 µM (≈ 2.91 µg/mL); MIC (Escherichia coli UB1005): 2 µM (≈ 2.91 µg/mL); MIC [9]: 8 µM (≈ 11.7 µg/mL); MIC [10]: 4 µM (≈ 5.83 µg/mL); MIC [11]: 4 µM (≈ 5.83 µg/mL); MIC [12]: 4 µM (≈ 5.83 µg/mL); MIC [13]: 8 µM (≈ 11.7 µg/mL); MIC [14]: 8 µM (≈ 11.7 µg/mL); MIC [15]: 2 µM (≈ 2.91 µg/mL) |
|  |  |  |  |  |  | ≥ 128 µM |  | ≥ 128 µM | ≥ 128 µM | CC[C@H](C)[C@H](NC(=O)[C@H](CCCN=C(N)N)NC(=O)[C@H](C)NC(=O)[C@H](C)N)C(=O)N[C@H](C(=O)N[C@@H](CC(C)C)C(=O)N[C@@H](CCCN=C(N)N)C(=O)N[C@@H](CC(=O)O)C(=O)N[C@@H](CCCN=C(N)N)C(=O)N[C@@H](Cc1ccccc1)C(=O)N[C@@H](CCCN=C(N)N)C(N)=O)[C@@H](C)CC [AARIILRDRFR] | MIC (Escherichia coli 078): ≥ 128 µM; MIC [16]: > 128 µM; MIC (Escherichia coli K88): ≥ 128 µM; MIC (Escherichia coli K99): ≥ 128 µM; MIC (Escherichia coli UB1005): ≥ 128 µM; MIC [9]: > 128 µM; MIC [10]: ≥ 128 µM; MIC [11]: > 128 µM; MIC [12]: ≥ 128 µM; MIC [13]: > 128 µM; MIC [17]: > 128 µM; MIC [14]: > 128 µM; MIC [15]: > 128 µM |

Source: DBAASP
